{"source": "patent US7781565B2", "about": "(priority 2006, dated 2010)", "note": "“Also recorded” adds a separate entry of the source."}
{"tested_on": "NCI-60 cell lines", "format": "cell-based, human"}
{"substance": "VLVEGAV", "Cell Line the peptide is associated with (peptide recovered from phage library selection on this NCI-60 cell line)": "TK-10 Renal"}
{"substance": "VMDRGVA", "Cell Line (NCI-60 cell line the peptide and its motif are associated with)": "UACC 257 Melanoma"}
{"substance": "VMGAGVQ", "Cell Line the peptide is associated with (peptide recovered from phage library selection on this NCI-60 cell line)": "ACHN Renal"}
{"substance": "VMGGPSL", "Cell Line with which the peptide (and its tripeptide motif) is associated": "Hop-62-Lung"}
{"substance": "VMLLRPE", "Cell Line with which the peptide (and its tripeptide motif) is associated": "HL-60-Leukemia"}
{"substance": "VMPGSVV", "Cell Line (NCI-60 cell line the peptide is associated with)": "SF-295 CNS"}
{"substance": "VMWVARG", "Cell Line (NCI-60 cell line the peptide is associated with)": "KM-12C Colon"}
{"substance": "VNLGGSW", "Cell Line with which the peptide (and its tripeptide motif) is associated": "H322-Lung"}
{"substance": "VPLRSSA", "Cell Line (NCI-60 cell line the peptide is associated with)": "HT-29 Colon"}
{"substance": "VPPSGGR", "Cell Line the peptide is associated with (peptide recovered from phage library selection on this NCI-60 cell line)": "RXF393 Renal"}
{"substance": "VPSGSVR", "Cell Line the peptide is associated with (peptide recovered from phage library selection on this NCI-60 cell line)": "NCI/ADR-RES Breast"}
{"substance": "VRAAGRV", "Cell Line with which the peptide (and its tripeptide motif) is associated": "Hop-62-Lung"}
{"substance": "VRANGGS", "Cell Line the peptide is associated with (peptide recovered from phage library selection on this NCI-60 cell line)": "MDA-MB-231 Breast"}
{"substance": "VRASSKR", "Cell Line (NCI-60 cell line the peptide and its motif are associated with)": "OVCAR-5 Ovarian"}
{"substance": "VRAVCLM", "Cell Line (NCI-60 cell line the peptide is associated with)": "SNB-75 CNS"}
{"substance": "VRGGLTG", "Cell Line (NCI-60 cell line the peptide is associated with)": "HT-29 Colon"}
{"substance": "VRGSRWR", "Cell Line (NCI-60 cell line the peptide is associated with)": "HT-29 Colon"}
{"substance": "VRGSVRA", "Cell Line with which the peptide (and its tripeptide motif) is associated": "H23-Lung"}
{"substance": "VRLRAVF", "Cell Line the peptide is associated with (peptide recovered from phage library selection on this NCI-60 cell line)": "TK-10 Renal"}
{"substance": "VRLSGRA", "Cell Line (NCI-60 cell line the peptide is associated with)": "SNB-19 CNS; also recorded: SF-539 CNS"}
{"substance": "VRLTGVR", "Cell Line (NCI-60 cell line the peptide and its motif are associated with)": "SK-OV-3-3 Ovarian"}
{"substance": "VRPRAVL", "Cell Line (NCI-60 cell line the peptide and its motif are associated with)": "UACC62 Melanoma"}
{"substance": "VRRSSKF", "Cell Line the peptide is associated with (peptide recovered from phage library selection on this NCI-60 cell line)": "BT-549 Breast"}
{"substance": "VRSSGVL", "Cell Line (NCI-60 cell line the peptide and its motif are associated with)": "SK-OV-3-3 Ovarian"}
{"substance": "VRVGRLS", "Cell Line (NCI-60 cell line the peptide and its motif are associated with)": "UACC62 Melanoma"}
{"substance": "VRVSGLT", "Cell Line (NCI-60 cell line the peptide and its motif are associated with)": "SK-MEL-5 Melanoma"}
{"substance": "VRVSLNS", "Cell Line the peptide is associated with (peptide recovered from phage library selection on this NCI-60 cell line)": "MDA-MB-231 Breast"}
{"substance": "VSAASSV", "Cell Line the peptide is associated with (peptide recovered from phage library selection on this NCI-60 cell line)": "RXF393 Renal"}
{"substance": "VSGDGGS", "Cell Line (NCI-60 cell line the peptide is associated with)": "SNB-75 CNS"}
{"substance": "VSGSGTA", "Cell Line (NCI-60 cell line the peptide and its motif are associated with)": "PC3 Prostate"}
{"substance": "VSRIGVR", "Cell Line (NCI-60 cell line the peptide is associated with)": "LOX-IMVI Melanoma"}
{"substance": "VSSTARG", "Cell Line (NCI-60 cell line the peptide is associated with)": "MALME-3M Melanoma"}
{"substance": "VTDGAGQ", "Cell Line (NCI-60 cell line the peptide is associated with)": "SF-268 CNS"}
{"substance": "VTGGRVD", "Cell Line with which the peptide (and its tripeptide motif) is associated": "A549-Lung"}
{"substance": "VTRIRVS", "Cell Line (NCI-60 cell line the peptide and its motif are associated with)": "UACC 257 Melanoma"}
{"substance": "VVASLPH", "Cell Line (NCI-60 cell line the peptide is associated with)": "HT-29 Colon"}
{"substance": "VVGGRRT", "Cell Line the peptide is associated with (peptide recovered from phage library selection on this NCI-60 cell line)": "HS 578 T Breast"}
{"substance": "VVMIAGS", "Cell Line the peptide is associated with (peptide recovered from phage library selection on this NCI-60 cell line)": "MDA-MB-231 Breast"}
{"substance": "VWAGVLL", "Cell Line with which the peptide (and its tripeptide motif) is associated": "Hop-62-Lung"}
{"substance": "VWGVGGS", "Cell Line with which the peptide (and its tripeptide motif) is associated": "K-562-Leukemia"}
{"substance": "VWLRGST", "Cell Line (NCI-60 cell line the peptide and its motif are associated with)": "M14 Melanoma"}
{"substance": "VYGGRSE", "Cell Line the peptide is associated with (peptide recovered from phage library selection on this NCI-60 cell line)": "CAIK-1 Renal"}
{"substance": "VYGWGGS", "Cell Line (NCI-60 cell line the peptide and its motif are associated with)": "DU-145 Prostate"}
{"substance": "VYWWGVS", "Cell Line the peptide is associated with (peptide recovered from phage library selection on this NCI-60 cell line)": "A498 Renal"}
{"substance": "VYYALRS", "Cell Line (NCI-60 cell line the peptide is associated with)": "KM-12C Colon"}
{"substance": "VYYRLSA", "Cell Line with which the peptide (and its tripeptide motif) is associated": "SR Leukemia"}
{"substance": "WAGLSPS", "Cell Line with which the peptide (and its tripeptide motif) is associated": "Hop-92-Lung"}
{"substance": "WAGLSRP", "Cell Line the peptide is associated with (peptide recovered from phage library selection on this NCI-60 cell line)": "SN12C Renal"}
{"substance": "WAGSNYS", "Cell Line (NCI-60 cell line the peptide is associated with)": "SNB-75 CNS"}
{"substance": "WAHAASY", "Cell Line the peptide is associated with (peptide recovered from phage library selection on this NCI-60 cell line)": "CAIK-1 Renal"}
{"substance": "WAHGVLS", "Cell Line (NCI-60 cell line the peptide and its motif are associated with)": "M14 Melanoma"}
{"substance": "WARAGGF", "Cell Line (NCI-60 cell line the peptide is associated with)": "SNB-19 CNS; also recorded: SF-539 CNS"}
{"substance": "WDGSSVS", "Cell Line the peptide is associated with (peptide recovered from phage library selection on this NCI-60 cell line)": "SN12C Renal"}
{"substance": "WDQGSGY", "Cell Line (NCI-60 cell line the peptide and its motif are associated with)": "OVCAR-4 Ovarian"}
{"substance": "WFGAVGL", "Cell Line with which the peptide (and its tripeptide motif) is associated": "Molt-4-Leukemia"}
{"substance": "WFKGPSV", "Cell Line (NCI-60 cell line the peptide is associated with)": "SF-268 CNS"}
{"substance": "WFSWLVS", "Cell Line with which the peptide (and its tripeptide motif) is associated": "H460-Lung"}
{"substance": "WGAGFWM", "Cell Line with which the peptide (and its tripeptide motif) is associated": "H460-Lung"}
{"substance": "WGAGLDA", "Cell Line (NCI-60 cell line the peptide and its motif are associated with)": "OVCAR-4 Ovarian"}
{"substance": "WGATAGG", "Cell Line with which the peptide (and its tripeptide motif) is associated": "Hop-62-Lung"}
{"substance": "WGLVRHA", "Cell Line (NCI-60 cell line the peptide is associated with)": "SF-268 CNS"}
{"substance": "WGRGSVA", "Cell Line with which the peptide (and its tripeptide motif) is associated": "Molt-4-Leukemia"}
{"substance": "WGRLEST", "Cell Line the peptide is associated with (peptide recovered from phage library selection on this NCI-60 cell line)": "BT-549 Breast"}
{"substance": "WGSGRGN", "Cell Line with which the peptide (and its tripeptide motif) is associated": "HL-60-Leukemia"}
{"substance": "WGSSAVK", "Cell Line (NCI-60 cell line the peptide and its motif are associated with)": "IGROV1 Ovarian"}
{"substance": "WGSSTVR", "Cell Line with which the peptide (and its tripeptide motif) is associated": "H322-Lung"}
{"substance": "WGSVAGI", "Cell Line (NCI-60 cell line the peptide is associated with)": "SNB-75 CNS"}
{"substance": "WGVAGLG", "Cell Line (NCI-60 cell line the peptide is associated with)": "HT-29 Colon"}
{"substance": "WGVLQLE", "Cell Line (NCI-60 cell line the peptide is associated with)": "LOX-IMVI Melanoma"}
{"substance": "WGWRASS", "Cell Line with which the peptide (and its tripeptide motif) is associated": "A549-Lung"}
{"substance": "WISAVSK", "Cell Line (NCI-60 cell line the peptide and its motif are associated with)": "SK-OV-3-3 Ovarian"}
{"substance": "WIWRAVS", "Cell Line (NCI-60 cell line the peptide is associated with)": "SF-268 CNS"}
{"substance": "WLDAAVK", "Cell Line (NCI-60 cell line the peptide is associated with)": "LOX-IMVI Melanoma"}
{"substance": "WLDASLM", "Cell Line with which the peptide (and its tripeptide motif) is associated": "SR Leukemia"}
{"substance": "WLLRGFG", "Cell Line (NCI-60 cell line the peptide and its motif are associated with)": "A498 Renal"}
{"substance": "WLLRSWS", "Cell Line the peptide is associated with (peptide recovered from phage library selection on this NCI-60 cell line)": "CAIK-1 Renal"}
{"substance": "WLLSARL", "Cell Line (NCI-60 cell line the peptide is associated with)": "HCC-2998-Colon"}
{"substance": "WLLSSEI", "Cell Line (NCI-60 cell line the peptide and its motif are associated with)": "PC3 Prostate"}
{"substance": "WQVALRS", "Cell Line (NCI-60 cell line the peptide is associated with)": "HT-29 Colon"}
{"substance": "WQVSGVR", "Cell Line (NCI-60 cell line the peptide is associated with)": "KM-12C Colon"}
{"substance": "WRARASP", "Cell Line (NCI-60 cell line the peptide and its motif are associated with)": "UACC62 Melanoma"}
{"substance": "WRASAFT", "Cell Line with which the peptide (and its tripeptide motif) is associated": "SR Leukemia"}
{"substance": "WRASPGM", "Cell Line the peptide is associated with (peptide recovered from phage library selection on this NCI-60 cell line)": "BT-549 Breast"}
{"substance": "WRGGLDR", "Cell Line the peptide is associated with (peptide recovered from phage library selection on this NCI-60 cell line)": "MCF-7 Breast"}
{"substance": "WRLAGLG", "Cell Line the peptide is associated with (peptide recovered from phage library selection on this NCI-60 cell line)": "NCI/ADR-RES Breast"}
{"substance": "WRLGAVG", "Cell Line (NCI-60 cell line the peptide is associated with)": "SW620-Colon"}
{"substance": "WRLLRRQ", "Cell Line with which the peptide (and its tripeptide motif) is associated": "SR Leukemia"}
{"substance": "WRLSREG", "Cell Line (NCI-60 cell line the peptide and its motif are associated with)": "SK-MEL-2 Melanoma"}
{"substance": "WRVRSSG", "Cell Line (NCI-60 cell line the peptide is associated with)": "HCT-15 Colon"}
{"substance": "WSAGGPH", "Cell Line with which the peptide (and its tripeptide motif) is associated": "SR Leukemia"}
{"substance": "WSATGVS", "Cell Line the peptide is associated with (peptide recovered from phage library selection on this NCI-60 cell line)": "HS 578 T Breast"}
{"substance": "WSGGLNV", "Cell Line with which the peptide (and its tripeptide motif) is associated": "H322-Lung"}
{"substance": "WSGVSRL", "Cell Line (NCI-60 cell line the peptide is associated with)": "HCT-15 Colon"}
{"substance": "WSISGSV", "Cell Line the peptide is associated with (peptide recovered from phage library selection on this NCI-60 cell line)": "MDA-MB-231 Breast"}
{"substance": "WSSTASL", "Cell Line with which the peptide (and its tripeptide motif) is associated": "H460-Lung"}
{"substance": "WTERASA", "Cell Line (NCI-60 cell line the peptide is associated with)": "HCT-15 Colon"}
